For 65 compounds, melting point results are on record in a melting point compilation (Tetko et al.; mined from patent text by program, amines drawn as free bases though some values may be those of a salt).

For the compound `COc1ccc(-c2c(C(=O)N3CCOCC3)ccc3cc(Cl)ccc23)cc1OC`, the melting point lay in the range of 157 to 159 °C.

As to `O=C(OCc1snc(Cl)c1Cl)c1ccccc1`, the melting point lay in the range of 79 to 80 °C.

Take `O=C(CC(F)(F)F)N[C@H]1CC[C@H](CCN2CCC(c3cccc4c3CCO4)CC2)CC1`: the melting point came out at 197 °C.

Turning to `CCOC(=O)CC[C@H](NC(=O)c1ccc(C(C)=Cc2cnc3nc(N)nc(N)c3c2)cc1)C(=O)OCC`, the melting point is over 300 °C.

`O=C1CCC(c2ccc(N=C=S)cc2)=NN1` returned a melting point of 182 to 183 °C.

Turning to `COc1ccc(C2=NN(c3cccc(C(=O)O)c3)C(=O)C(C)(C)C2)cc1OC`, the melting point lay within 165 to 167 °C.

`COc1ccc(-c2nc(SC(F)(F)C(F)F)[nH]c2-c2ccncc2)cc1` came in with a melting point of 212 to 214 °C.

`O=C(O)c1cn(C2CC2)c2c(C(F)(F)F)c(N3CCC(c4ccncc4)C3)c(F)cc2c1=O` (stereo not given) registered a melting point of 244 to 245 °C.

Turning to `COc1ccc(F)cc1C(C)(C)CC(O)(Cn1cc(C)c(=O)c2ccccc21)C(F)(F)F` (stereo not given), the melting point is over 225 °C.

For `CC(C)(C)[Si](ON1C(=O)c2ccccc2C1=O)(c1ccccc1)c1ccccc1`, the melting point lay in the range of 138 to 143 °C.

Consider `N#Cc1cc(C2=Nc3ccc(-c4ccc(F)cc4F)cc3NC(=O)C2)ccn1`, for which the melting point fell in the range of 250 to 253 °C.

On to `Cc1ccc2occ(-c3ccccc3)c2c1`, for which the melting point was 99 to 108 °C.

With `CC1(c2ccccc2)OC(=O)Nc2ccc(-c3cccc(Cl)c3)cc21` (stereo not given), the melting point was in the range of 179 to 180 °C.

Compound `COc1ccccc1CNc1ccc2cc(Nc3ncco3)ccc2n1` yielded a melting point of 205 °C.

Take `COc1ccc(Cn2ccnc2S)cc1Br`: the melting point is 188 °C.

`CC(C)(O/N=C(\C(=O)N[C@@H]1C(=O)N[C@@H]1COC(=O)NC(=O)CCl)c1csc(NC(=O)CCl)n1)C(=O)OCc1ccc([N+](=O)[O-])cc1` (relative stereo) came in with a melting point of 206 to 209 °C.

The compound `COc1ccc(COc2cccc(-c3cnc4[nH]cc(C(=O)C(C)(C)C)c4n3)c2)cc1` displayed a melting point of over 300 °C.

On to `CC(C)(C)OC(=O)N[C@@H](C(=O)O)C1(C)CCCCC1`, for which the melting point was in the range of 127 to 130 °C.

`Brc1cn2c(Br)cnc2c(Br)n1` gave a melting point of 161 °C.

Consider `CC1(C)C=C(c2ccccn2)c2ccc(Cl)c(Cl)c2OC1`, for which the melting point is 112 °C.

Consider `CCn1c(=O)n(OCc2ccccc2)c(=O)c2cc(F)c(F)cc21`, for which the melting point lay within 133 to 135 °C.

The compound `CCCC(C)(O)C(=O)Nc1ccnc(Br)c1` (stereo not given) had a melting point of 102 °C.

On to `COc1ccc(C2=Nc3cccnc3Nc3ccccc32)cc1`, for which the melting point was in the range of 198 to 200 °C.

Regarding `COCC1CN(c2ccc3cc(OC(C)=O)ccc3c2)C(=O)O1` (stereo not given), the melting point was in the range of 110 to 112 °C.

For the compound `Cc1cc(CC(=O)O)[nH]c1C(=O)c1ccccc1`, the melting point is 167 to 168 °C.

Consider `COc1ccc(Nc2cc(-c3ccc(S(C)(=O)=O)cc3)nc(N)n2)cc1Cl`, for which the melting point was 241 to 244 °C.

In the case of `Cc1cc(C(=O)NC(=N)N)no1`, the melting point is 192 °C.

`COc1ccc(-c2c([N+](=O)[O-])cnc3ccc(Cl)cc23)c(OC)c1OC` came in with a melting point of 114 to 116 °C.

With `CCCC1CC(=O)c2c(NC(=O)C(=O)OCC)ccc(C)c21` (stereo not given), the melting point lay in the range of 84 to 86 °C.

`CCC(CC)c1ccc(Cl)c2nc(Nc3ccc(Br)cc3C)n(CCCCO)c12` had a melting point of 151 to 152 °C.

Compound `O=C1NCCN(NC(=O)c2ccc(O)c(O)c2)C1=O` returned a melting point of 294 °C.

The compound `O=C(CCCO)NCCO` came in with a melting point of 54 to 56 °C.

For `O=C(O)c1ccc2[nH]c(C(=O)O)cc2c1`, the melting point fell in the range of 314 to 315 °C.

With `CC(=O)OC1C(C)OC(OC(=N)C(Cl)(Cl)Cl)C(OC(C)=O)C1OC(C)=O` (stereo not given), the melting point was 60 to 63 °C.

`CC(=O)OC1CSC(Oc2cccc(-c3ncccc3F)c2)C(OC(C)=O)C1OC(C)=O` (stereo not given) had a melting point of 51 °C.

Consider `O=C1CCC(c2ccc(-c3ccc(Cl)cc3)cc2)=NO1`, for which the melting point was in the range of 190 to 192 °C.

Turning to `N#Cc1ccc(OCc2ccsc2)cc1OC(CCC(=O)O)c1c(F)cccc1Cl` (racemic), the melting point is 128 to 130 °C.

On to `O=C(NCc1cccnc1)c1ccc2n1Cc1ccccc1N(C(=O)Cc1ccc(Cl)cc1)C2`, for which the melting point was 83 °C.

Regarding `COC(=O)CCCCCCC1C(=O)CCN1C(=O)c1ccc(-c2ccccc2)cc1` (stereo not given), the melting point was in the range of 90 to 92 °C.

`O=C(Nc1cccc2[nH]ccc12)c1cc(O)cc(Cl)c1` had a melting point of 248 °C.

As to `CC(C)(C)C(NC(=O)c1ccc(Cl)cc1)NC(=NC#N)NCc1ccccc1Cl` (stereo not given), the melting point is 180 to 182 °C.

Turning to `O=C1CN(C(=O)c2ccco2)c2ccccc2N1`, the melting point lay within 229 to 230 °C.

`CCCCC1(N(C)C)CC=C(c2c[nH]c3ncccc23)CC1` (stereo not given) showed a melting point of 142 to 145 °C.

`O=C1Cc2cc(NC(=O)C(=O)O)ccc2N1` displayed a melting point of 256 °C.

Turning to `O=C1c2ccccc2-n2cnc(-c3cccc(Cl)c3)c2[C@@H]2CCCN12`, the melting point is 242 to 243 °C.

Turning to `COc1cc(SC)ccc1C(=O)c1cnoc1C1CC1`, the melting point amounted to 108 °C.

On to `CCCCc1c[nH]c2ccc(CO)cc2c1=O`, for which the melting point came to 260 °C.

On to `O=C(COc1ccc(Cl)c(Cl)c1)N1CCC2(CC1)Cn1cc([N+](=O)[O-])nc1O2`, for which the melting point lay within 218 to 220 °C.

For the compound `Cc1cnc(S(=O)(=O)c2ccccc2)c(C)c1Cl`, the melting point was 91 to 92 °C.

Regarding `O=C(NC1=NN(c2ccccc2)C(c2ccccc2)C1)C(F)(F)F` (stereo not given), the melting point lay in the range of 152 to 154 °C.

The compound `C#CCN1CCN(C(C)=O)CC1` had a melting point of 63 to 65 °C.

`CCOC(=O)NCCC12CC(c3ccccc31)c1ccccc12`: the melting point lay in the range of 122 to 123 °C.

As for `COCn1c(-c2nc3c(OC)ccc(N4CCOCC4)c3s2)nc2ccc(N3CCOCC3)nc21`, the melting point lay within 126 to 128 °C.

Regarding `COc1ccccc1OC(=O)C(=O)Oc1ccccc1OC`, the melting point was in the range of 123 to 126 °C.

`CCCN(c1ncccc1N)C1CCN(Cc2ccccc2)CC1` registered a melting point of 73 to 74 °C.

In the case of `COc1ccc(C(=O)c2ccccc2F)c(Cl)c1`, the melting point lay within 77 to 79 °C.

`CCNc1nc(C)c(C(=O)OCC)c(N2CCN(C)CC2)c1N` displayed a melting point of 73 to 75 °C.

As to `CSc1nc(N)c(N)c(=O)n1C`, the melting point was in the range of 211 to 212 °C.

The compound `CNc1nc(Cl)c(Cl)c(N2CCN(C(=O)OC(C)(C)C)CC2)n1` yielded a melting point of 129 to 131 °C.

Compound `Clc1cc(OC(Cl)(Cl)Cl)nc(Cl)n1` showed a melting point of 55 to 56 °C.

For the compound `COc1ccc(Cl)c(N)c1C(=O)CCl`, the melting point came out at 112 °C.

As for `Cc1ccc(-c2csc3nc(C)c(CCCl)c(=O)n23)cc1`, the melting point lay within 152 to 165 °C.

Take `CCN(C(=O)c1c(Cl)cccc1[Si](C)(C)C)C(OC)C(C)(C)C` (stereo not given): the melting point was in the range of 82 to 83 °C.

`CCCCN1CC(=O)N2[C@@H](c3ccc(NS(C)(=O)=O)cc3)c3[nH]c4ccccc4c3C[C@@H]2C1=O` (relative stereo) yielded a melting point of 188 °C.

Consider `CCCOc1nc(C(F)(F)C(F)(F)F)cc(=O)n1-c1cc(O)c(Cl)cc1F`, for which the melting point lay in the range of 109 to 111 °C.

For orientation: melting point means the temperature, or range, at which the solid turns liquid.
